Reference: EP0186181A2, “Uses for enprostil” (SYNTEX (U.S.A.) INC., priority 1984, dated 1986)
Where two headings read alike, the source gives them in different places.

Experiments:
[1] = system: insulin levels; conditions: cited from earlier work
[2] = system: serum cholesterol; experiment: Effect of orally administered enprostil on serum cholesterol, five weeks (Example I); type: in vivo, human
Description: A group of 20 patients with high cholesterol baseline were orally given 70 µg enprostil twice daily. […] The median change for the group was 16 percent reduction, with 60 percent of the patients tested showing a significant reduction in serum cholesterol.
A second group of 16 patients with a high cholesterol baseline were given 35 µg enprostil twice daily.
A third group of 13 individuals were given a placebo. […] The median change was a 2 percent increase in cholesterol.

[3] = system: serum cholesterol; experiment: Cholesterol reduction study, 7 to 70 µg BID versus placebo (Example II, Table 1); type: in vivo, human
[4] = system: serum cholesterol, LDL cholesterol, HDL cholesterol, apoproteins; experiment: 9-day placebo controlled cross-over study in normal subjects: cholesterol, LDL, HDL, apoproteins (Table 2); type: in vivo, human; design: Mean reduction of cholesterol / Mean reduction of LDL cholesterol / Mean reduction of HDL cholesterol / Mean reduction of apoprotein A / Mean reduction of apoprotein B: concentration or dose not given beside the values; conditions: 9-day cross-over
Description: To further clarify the nature of these changes in a prospective manner, normal subjects were dosed with enprostil for periods ranging from 8 days up to 44 days in duration.
In a 9-day placebo controlled cross-over study, with each subject serving as their own control, the mean reduction in cholesterol, Low Density Lipoprotein (LDL) cholesterol, and High Density Lipoprotein (HDL) cholesterol are shown in Table 2.
These findings are surprising since the subjects in this study were normocholesterolemic at baseline (that is serum cholesterol under 250 mg/dl) and were on a free diet with no attempt to regulate dietary cholesterol intake.

[5] = system: serum cholesterol; experiment: 44 day dosing placebo controlled trial, serum cholesterol (Example III); type: in vivo, human
Description: In a 44 day dosing study 20 subject participated in a placebo controlled trial. Ten subjects received enprostil and the remainder received placebo. […] Similarly there was a 46% reduction in their LDL cholesterol from 140 mg/dl to 75 mg/dl. This subject was normocholesterolemic at baseline and no dietary manipulation was attempted.

[6] = system: serum GIP; experiment: Serum GIP after meal stimulus, double blind crossover study (Example IV); type: in vivo, human; conditions: 70 µg orally 30 minutes before meal; placebo showed a four fold increase
Description: Serum GIP levels are known to increase after meals.
Groups of 10 subjects participated in a double blind, crossover study. Either the placebo or 70 µg enprostil was orally given 30 minutes before meal time and levels of GIP were measured.

[7] = system: serum insulin and glucose; experiment: Serum insulin and glucose after meal, double blind crossover study (Example V); type: in vivo, human; conditions: orally 30 minutes before meal
Description: A group of 10 subjects participated in a double blind crossover study. Either a placebo or enprostil was orally given 30 minutes before meal time and levels of insulin and glucose were measured after the meal.

[8] = system: serum insulin and glucose; experiment: Eight-day crossover study with standard breakfast: serum glucose, insulin, GIP (Example VI); type: in vivo, human; conditions: 70 µg orally
Description: Eight healthy male subject received either 70 µg enprostil per day or placebo for eight days followed by a washout period of one week and a subsequent second eight-day administration during which they received the opposite drug regime.
On day 1 and day 8 of each study period the patients reported to the clinical studies unit fasting and were administered 70 µg of enprostil orally in a glass of water. Thirty minutes later they were administered a standard breakfast and blood samples were drawn at -30, just prior to enprostil administration, 0, at the time of enprostil administration, 15, 30, 60, 90, 120 and 180 minutes.

[9] = system: serum xylose; experiment: Oral d-xylose absorption, 10-day placebo controlled cross-over (Example VII); type: in vivo, human; conditions: 70 µg enprostil per day, 5 g d-xylose orally
Description: (§1) 10 normal subjects participated in a 10-day placebo controlled cross-over receiving either placebo or […] enprostil per day. On day 1 and day 9 of each study phase they orally received 5 g of d-xylose, a sugar not normally metabolized in man. Blood measurements for serum xylose were made at -30, 0, +30, 60, 120, 180, 240, and 300 minutes following ingestion of xylose. On day 2 and day 10 of each study phase, the subjects received a 25 g intravenous glucose tolerance test, 30 minutes following enprostil administration.

[10] = system: serum glucose; experiment: 25 g intravenous glucose tolerance test (Example VII); type: in vivo, human; conditions: 30 minutes following enprostil administration, day 2 and day 10
Description: as §1

[11] = system: serum glucose; experiment: Serum glucose after standard breakfast, study lasting up to 44 days (Example VIII); type: in vivo, human; conditions: 35 µg BID, standard breakfast 30 minutes after dose
Description: 20 subjects participated in a study lasting up to 44 days. On day -8, all 20 subjects received a placebo capsule followed 30 minutes later by a standard breakfast with serial blood measurements. Eight days later all 20 subjects were randomized to either enprostil […] BID or placebo and continued dosing for a period of 30 days. On days 1, 8, and 30, they were given enprostil followed 30 minutes later by a standard breakfast with serial blood measurements.

[12] = administered by tube to the duodenum
[13] = 35 µg twice daily, of 16 patients
[14] = 70 µg twice daily, of 20 patients
[15] = normocholesterolemic subjects, free diet
[16] = of nine subjects who received enprostil
[17] = subject number 120, from 140 mg/dl

In the case of `CCCCC[C@](C)(O)/C=C/[C@H]1[C@H](O)CC(=O)[C@@H]1C/C=C\CCCC(=O)OC` [15S, 15 methyl PGE2 methyl ester], the insulin levels [1, 12] is given as “lowered insulin levels”, the serum glucose levels [1, 12] is given as “no change” and the “time to peak serum glucose levels” value ([1]; intraduodenally or intravenously) is given as “no change”. The glucose levels ([1]; intravenous administration) was “without affecting glucose levels” and the insulin levels ([1]; intravenous administration) was “lowered insulin levels”.
In the case of `COC(=O)CCC=C=CC[C@H]1C(=O)C[C@@H](O)[C@@H]1/C=C/[C@@H](O)COc1ccccc1` [enprostil], the “patients showing serum cholesterol reduction” value ([2]; 35 µg twice daily, 16 patients) is reported as 56%, the “median change (reduction in serum cholesterol)” value ([2]; 35 µg twice daily, 16 patients with high cholesterol baseline) is reported as “eleven” and the “number of patients showing greater than 10 percent serum cholesterol reduction” value [2, 13] is reported as “eight”. The “number of patients showing greater than 25 percent reduction in serum cholesterol” value [2, 13] was “one”, the “number of patients showing no change in serum cholesterol” value [2, 13] was “seven” and the “patients tested showing a significant reduction in serum cholesterol” value ([2]; 70 µg twice daily orally, 20 patients) was 60%. For the same molecule, the “median change for the group (reduction in serum cholesterol)” value ([2]; 70 µg twice daily orally, 20 patients with high cholesterol baseline) was 16%, the “number of patients showing greater than 10 percent reduction in serum cholesterol” value [2, 14] was “eleven” and the “number of patients showing greater than 25 percent reduction in serum cholesterol” value [2, 14] was “one”. The “number of patients showing no change in serum cholesterol” value [2, 14] was “eight”, the “Cholesterol % decrease (combined 2-12 week of dosing)” value (from here on “Cholesterol % decrease”) ([3]; 7 µg BID, 9 subjects) was 67% and the “Median % change (cholesterol)” value ([3]; 7 µg BID, 9 subjects) was -11%. For the same molecule, the “Cholesterol % decrease” value ([3]; 35 µg BID, 28 subjects) was 64%, the “Median % change (cholesterol)” value ([3]; 35 µg BID, 28 subjects) was -13% and the “Cholesterol % decrease” value ([3]; 70 µg BID, 28 subjects) was 64%. For the same molecule, the “Median % change (cholesterol)” value ([3]; 70 µg BID, 28 subjects) was -17%, the “change in total triglycerides” value [4] was “essentially no change” and the “Mean reduction of HDL cholesterol” value [4, 15] was -9.2%. For the same molecule, the “Mean reduction of LDL cholesterol” value [4, 15] was -21.0%, the “Mean reduction of apoprotein A” value [4, 15] was -1.8% and the “Mean reduction of apoprotein B” value [4, 15] was -16.0%. For the same molecule, the “Mean reduction of cholesterol” value [4, 15] was -15.0%, the “number of individuals with a reduction in total and LDL cholesterol throughout the entire 44 day period” value [5, 16] was “Three” and the “number of subjects showing a reduction of total cholesterol by 16 days” value [5, 16] was “Six”. The “reduction of total serum cholesterol” value ([5]; subject number 120, day 44 versus mean baseline of 208 mg/dl) was 43%, the “LDL cholesterol after dosing” value [5, 17] was 75 mg/dL and the “reduction in LDL cholesterol” value [5, 17] was 46%. The “total serum cholesterol at day 44” value ([5]; subject number 120, mean baseline 208 mg/dl) was 123 mg/dL, the “increase in serum GIP 60 minutes after the meal stimulus” value [6] was “no increase” and the “raise in glucose levels after the meal” value [7] was “no statistically or clinically significant raise”. For the same molecule, the “increase of insulin levels after the meal” value ([7]; placebo five fold) was “two”, the “serum GIP” value ([8]; both study days) was “essentially complete inhibition” and the “serum insulin concentrations for each time point” value ([8]; day 1 and 8) was “marked reduction”. The “reduction of area under the serum glucose by time curve compared to the placebo phase” value ([8]; day 1 and day 8) was 15-20%, the “reduction in the amount of xylose excreted over 5 hours” value [9] was 30% and the “peak serum xylose levels” value ([9]; days 1 and 9) was “marked suppression and delay”. The “amount of xylose excreted over 5 hours” value ([9]; versus 1.8g) was 1.3 g, the “serum glucose by time curves following intravenous glucose administration, versus placebo” value [10] was “no marked differences” and the “peak blood glucose levels versus placebo” value [11] was “substantially reduced”. The “time of appearance of peak blood glucose levels” value ([11]; delay from approximately 60 minutes) was ~90 min.
